Source: US20190151369A1, “Engineered Stem Cell Therapy for Cardiac Repair” (Emory University, priority 2014, published 2019)
Where no end group is shown, it is not given here. The star is where a group is joined. Palmitoyl = CCCCCCCCCCCCCCCC(=O)*

Key:
mouse experimental MI [1] = assay: Scar area by Masson's trichrome staining of infarcted hearts; format: in vivo; conditions: 4 weeks after MI induction, N=6
Excerpt: (§1) Myocardial infarction (MI) was induced in mice by ligation of the left anterior descending coronary artery, and cells or other reagents were intramyocardially injected through 30 G needles at two different sites in the border zone of the myocardium immediately after surgery. Mice were randomly assigned into four treatment groups: (i) PBS as a control group, (ii) 2×10^5 mESCs-derived CMs only, (iii) PA-RGDS only, or (iv) 2×10^5 mESCs-derived CMs encapsulated with PA-RGDS. Due to the limiting factor of murine heart size and the requirement to deliver a large quantity of cells, only one concentration ratio of PA […] to cells was used for the studies. All CMs were obtained from the same differentiation batch and prelabeled with CM-DiI (red fluorescence) before cell injection for cell tracking in histology.
Masson's Trichrome staining was performed with fixed sections of infarcted hearts to evaluate the extent of scar formation 4 weeks after MI induction.

mouse experimental MI [2] = assay: Echocardiography (EF, FS) in mouse myocardial infarction model; format: in vivo; conditions: up to 4 weeks after MI induction
Excerpt: as §1
Next, the therapeutic effects of treatments with CM only, PA-RGDS only and mESC-CMs with PA-RGDS, comparing with PBS control in ischemic myocardium in mice was investigated. Echocardiography was performed regularly to measure cardiac remodeling and function (FIG. 6A).
Prior studies reported that the beneficial effects from treatment with various types of stem cells or stem cell derived cells were substantially diminished by 3-4 weeks, mostly due to massive cell death or ejection from the myocardium. […] (FIG. 7A)

[3] = Mechanical properties of self-assembled PA-RGDS gel (storage modulus); format: physicochemical
Excerpt: Cardiomyocytes (CMs) derived from pluripotent stem cells (PSCs) including both embryonic stem cells (ESCs) and the induced pluripotent stem cells (iPSCs) are useful for generating new CMs in injured hearts, with PA-RGDS, which addresses low cell survival. The PA-RGDS provides a protective microenvironment for CMs in vivo. An important aspect of the PA-RGDS is the physical properties of the gels, which can be tuned to provide mechanical strength. […] PA-RGDS nanomatrix gels were also observed to be structurally stable with well-defined cylindrical shape and increased durability for handling and transport. This is particularly important for early cell survival, as cardiac tissue scaffolds require enough mechanical strength to resist the cardiac cycle, but enough flexibility to allow the contractile function of implanted CMs. The mechanical strength of PA-RGDS can be tuned for the application.

RNVCMs = assay: Live/Dead assay after H2O2 treatment (simulated ischemic injury in vitro); format: cell-based; conditions: H2O2 (200 μM) treatment
Excerpt: Since oxidative stress in the ischemic heart is increasingly recognized as a possible cause for poor survival of transplanted cells, whether encapsulation of the CMs with PA-RGDS increases their survival when exposed to the H2O2 simulating ischemic condition in vitro was investigated.

CH3(CH2)14CONH-GTAGLIGQ-RGDS (Palmitoyl-GTAGLIGQRGDS) [PA-RGDS, gels made 1:1 with PA-S]
Scar area (mouse experimental MI [1]): 41.7±4.7%
Cardiac function (EF and FS) by echocardiography (mouse experimental MI [2]): dramatically reduced
Storage modulus (G′) [3]: around 100 Pa
Live cells (Live/Dead assay) after H2O2 (RNVCMs): increased cell survival
